The values below come from patent US20240083853A1, “HSD17B13 INHIBITORS AND USES THEREOF” (FL2022-001, Inc., priority 2020, published 2024).

Broadly, the IC50 is the concentration that inhibits the measured activity by half.

The experiment concerns the target T1, Recombinant human HSD17B13 enzyme (Homo sapiens, UniProt Q7Z5P4).
T1 sequence (Q7Z5P4 20-300): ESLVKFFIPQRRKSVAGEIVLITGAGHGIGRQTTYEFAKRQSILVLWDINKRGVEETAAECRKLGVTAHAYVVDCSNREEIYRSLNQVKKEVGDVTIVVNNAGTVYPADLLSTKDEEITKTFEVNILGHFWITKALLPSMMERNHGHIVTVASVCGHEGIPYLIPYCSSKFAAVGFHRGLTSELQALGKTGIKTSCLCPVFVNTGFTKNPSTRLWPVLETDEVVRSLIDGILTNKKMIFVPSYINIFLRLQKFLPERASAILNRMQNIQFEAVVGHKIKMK
Nature of the experiment: HSD17b13 NAD(P)H-Glo biochemical assay. Particulars: for IC50: 50 uM estradiol, 1 mM NAD+, NAD(P)H-Glo luminescence, read-out: HSD17β13 IC50; for inhibition at 10 µM: at 10 uM compound, read-out: HSD17β13 % at 10 uM. In outline: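 Recombinant human HSD17B13 in 20 mM Tris pH7.4 with 0.002% Tween-20 and 0.02% BSA was preincubated with inhibitor for 20 minutes at RT. The reaction ran 3 hours at 37° C with 50 uM estradiol and 1 mM NAD+ (final). NADH formed was detected by NAD(P)H-Glo luminescence after 1 hour at RT.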

Bounds are passed on as bounds.

Take `Nc1cccc(-c2ccc(-n3ncc4cc(F)c(O)cc43)cc2)c1` [Compound 13.27, 1-(3′-Amino-[1,1′-biphenyl]-4-yl)-5-fluoro-1H-indazol-6-ol]: the IC50 was in the range of 1000 to 30000 nM.
In the case of `CS(=O)(=O)N1CCN(c2ccc(-n3ncc4cc(F)c(O)c(F)c43)cn2)CC1` [Compound 26.2, 5,7-Difluoro-1-(6-(4-(methylsulfonyl)piperazin-1-yl)pyridin-3-yl)-1H-indazol-6-ol], the IC50 was in the range of 100 to 1000 nM.
On to `C[C@H]1CN(c2ccc(-n3ncc4cc(F)c(O)c(F)c43)cc2)C[C@H](C)O1` [Compound 24.9, 1-(4-((2S,6S)-2,6-Dimethylmorpholino)phenyl)-5,7-difluoro-1H-indazol-6-ol], for which the IC50 was below 100 nM.
Regarding `N#Cc1ccc(-c2ccc(-n3ncc4cc(F)c(O)c(F)c43)cc2)cc1` [Compound 13.39, 4′-(5,7-Difluoro-6-hydroxy-1H-indazol-1-yl)-[1,1′-biphenyl]-4-carbonitrile], the IC50 was below 100 nM.
Turning to `CS(=O)(=O)C1CCN(c2ccc(-n3ncc4cc(F)c(O)c(F)c43)cc2)C1` (stereo not shown) [Compound 22.2, 5,7-Difluoro-1-(4-(3-(methylsulfonyl)pyrrolidin-1-yl)phenyl)-1H-indazol-6-ol], the IC50 fell in the range of 100 to 1000 nM.
For `Nc1ccc(-c2ccc(-n3ncc4cc(F)c(O)cc43)cc2)cc1` [Compound 13.28, 1-(4′-Amino-[1,1′-biphenyl]-4-yl)-5-fluoro-1H-indazol-6-ol], the IC50 lay in the range of 100 to 1000 nM.
For `CC1(C)CCN(c2ccc(-n3ncc4c(Cl)c(F)c(O)cc43)cc2)CC1` [Compound 5.2, 4-Chloro-1-(4-(4,4-dimethylpiperidin-1-yl)phenyl)-5-fluoro-1H-indazol-6-ol], the IC50 was in the range of 100 to 1000 nM.
With `C[C@@H]1CN(c2ccc(-n3ncc4cc(F)c(O)c(F)c43)cc2)C[C@H](C)S1` [Compound 32.4, 1-(4-(cis-2,6-Dimethylthiomorpholino)phenyl)-5,7-difluoro-1H-indazol-6-ol], the IC50 was below 100 nM.
In the case of `Oc1c(F)cc2cnn(-c3ncc(-c4ccc(Cl)cc4)cn3)c2c1F` [Compound 18.4, 1-(5-(4-Chlorophenyl)pyrimidin-2-yl)-5,7-difluoro-1H-indazol-6-ol], the IC50 was below 100 nM.
For the compound `CS(=O)(=O)N1CCN(c2ccc(-n3ncc4cc(F)c(O)c(F)c43)nc2)CC1` [Compound 26.4, 5,7-Difluoro-1-(5-(4-(methylsulfonyl)piperazin-1-yl)pyridin-2-yl)-1H-indazol-6-ol], the IC50 lay in the range of 1000 to 30000 nM.
As to `CC1(C)CCN(c2ccc(-n3ncc4c(C#N)c(F)c(O)cc43)cc2)CC1` [Compound 7.1, 1-(4-(4,4-Dimethylpiperidin-1-yl)phenyl)-5-fluoro-6-hydroxy-1H-indazole-4-carbonitrile], the IC50 fell in the range of 100 to 1000 nM.
For `CS(=O)(=O)N1CCC2(CC1)CN(c1ccc(-n3ncc4cc(F)c(O)c(F)c43)cc1)C2` [Compound 20.22, 5,7-Difluoro-1-(4-(7-(methylsulfonyl)-2,7-diazaspiro[3.5]nonan-2-yl)phenyl)-1H-indazol-6-ol], the IC50 was in the range of 100 to 1000 nM.
In the case of `CS(=O)(=O)N1CCN(c2ccc(-n3ncc4cc(F)c(O)c(F)c43)c(Cl)c2)CC1` [Compound 20.1, 1-(2-Chloro-4-(4-(methylsulfonyl)piperazin-1-yl)phenyl)-5,7-difluoro-1H-indazol-6-ol], the 50% inhibitory concentration (IC50) is below 100 nM.
Take `CS(=O)(=O)N1CCC(Oc2ccc(-n3ncc4cc(F)c(O)c(F)c43)cc2)CC1` [Compound 31, 5,7-Difluoro-1-(4-((1-(methylsulfonyl)piperidin-4-yl)oxy)phenyl)-1H-indazol-6-ol]: the IC50 was 100 to 1000 nM.
For `CS(=O)(=O)N1CCN(c2ccc(-n3nnc4cc(F)c(O)c(F)c43)nn2)CC1` [Compound 26.25, 5,7-Difluoro-1-(6-(4-(methylsulfonyl)piperazin-1-yl)pyridazin-3-yl)-1H-benzo[d][1,2,3]triazol-6-ol], the IC50 was in the range of 1000 to 30000 nM.
For `CC(=O)Nc1cccc(-c2ccc(-n3ncc4cc(F)c(O)cc43)cc2)c1` [Compound 13.31, N-(4′-(5-Fluoro-6-hydroxy-1H-indazol-1-yl)-[1,1′-biphenyl]-3-yl)acetamide], the IC50 was in the range of 1000 to 30000 nM.
Consider `Cc1c(O)c(F)cc2cnn(-c3ccc(N4CCC(C)(C)CC4)cc3)c12` [Compound 25.6, 1-(4-(4,4-Dimethylpiperidin-1-yl)phenyl)-5-fluoro-7-methyl-1H-indazol-6-ol], for which the IC50 is below 100 nM.
As to `CC(C)C1(C)CCN(c2ccc(-n3ncc4cc(F)c(O)c(F)c43)cc2)CC1` [Compound 24.6, 5,7-Difluoro-1-(4-(4-isopropyl-4-methylpiperidin-1-yl)phenyl)-1H-indazol-6-ol], the IC50 is below 100 nM.
In the case of `CCC1(C)CN(c2ccc(-n3ncc4cc(F)c(O)c(F)c43)cc2)C1` [Compound 24.4, 1-(4-(3-Ethyl-3-methylazetidin-1-yl)phenyl)-5,7-difluoro-1H-indazol-6-ol], the IC50 was below 100 nM.
For `CS(=O)(=O)N1CCN(c2cnc(-n3ncc4cc(F)c(O)c(F)c43)nc2)CC1` [Compound 26.9, 5,7-Difluoro-1-(5-(4-(methylsulfonyl)piperazin-1-yl)pyrimidin-2-yl)-1H-indazol-6-ol], the IC50 was 100 to 1000 nM.
For `Oc1cc2c(cnn2-c2ccc(-c3cccc(F)c3)cc2)cc1F` [Compound 13.4, 5-Fluoro-1-(3′-fluoro-[1,1′-biphenyl]-4-yl)-1H-indazol-6-ol], the IC50 was 100 to 1000 nM.
For `Oc1cccc(-c2ccc(-n3nc(F)c4cc(F)c(O)c(F)c43)cc2)c1` [Compound 5.4, 3,5,7-Trifluoro-1-(3′-hydroxy-[1,1′-biphenyl]-4-yl)-1H-indazol-6-ol], the IC50 lay in the range of 100 to 1000 nM.
As to `Oc1ccc2cnn(-c3ccc(-c4ccc(O)c(Cl)c4)cc3)c2c1` [Compound 18.1, 1-(3′-Chloro-4′-hydroxy-[1,1′-biphenyl]-4-yl)-1H-indazol-6-ol], the IC50 fell in the range of 100 to 1000 nM.
Regarding `CC1CCN(c2ccc(-n3ncc4cc(F)c(O)c(F)c43)cc2)CC1` [Compound 23.18, 5,7-Difluoro-1-(4-(4-methylpiperidin-1-yl)phenyl)-1H-indazol-6-ol], the IC50 is below 100 nM.
With `CS(=O)(=O)N1C2CC1CN(c1ccc(-n3ncc4cc(F)c(O)c(F)c43)cc1)C2` [Compound 23.15, 5,7-Difluoro-1-(4-(6-(methylsulfonyl)-3,6-diazabicyclo[3.1.1]heptan-3-yl)phenyl)-1H-indazol-6-ol], the IC50 lay in the range of 100 to 1000 nM.
Same read-out and setting: for `Oc1c(F)cc2cnn(-c3cnc(-c4ccc(Cl)cc4)cn3)c2c1F` [Compound 18, 1-(5-(4-Chlorophenyl)pyrazin-2-yl)-5,7-difluoro-1H-indazol-6-ol] the value was below 100 nM; for `CS(=O)(=O)N1CCN(c2ccc(-n3cnc4cc(F)c(O)c(F)c43)cc2)CC1` [Compound 21.4, 5,7-Difluoro-1-(4-(4-(methylsulfonyl)piperazin-1-yl)phenyl)-1H-benzo[d]imidazol-6-ol], 100 to 1000 nM; for `Oc1c(F)cc2nnn(-c3ccc(N4CCOC[C@H]4c4ccccc4)cc3)c2c1F` [Compound 26.28, (R)-5,7-Difluoro-1-(4-(3-phenylmorpholino)phenyl)-1H-benzo[d][1,2,3]triazol-6-ol], 100 to 1000 nM.
Consider `CS(=O)(=O)N1CCN(c2ccc(-n3ncc4ccc(O)cc43)cc2)CC1` [Compound 26.5, 1-(4-(4-(Methylsulfonyl)piperazin-1-yl)phenyl)-1H-indazol-6-ol], for which the inhibition at 10 µM (3 h) stood at 35%.
`CC1(C)CCN(c2ccc(-n3[nH]c(=O)c4cc(F)c(O)c(F)c43)cc2)CC1` [Compound 36, 1-(4-(4,4-Dimethylpiperidin-1-yl)phenyl)-5,7-difluoro-6-hydroxy-1H-indazol-3(2H)-one]: the IC50 lay within 100 to 1000 nM.
Consider `Oc1cc2c(cnn2-c2ccc(-c3cccnc3)cc2)cc1F` [Compound 13.14, 5-Fluoro-1-(4-(pyridin-3-yl)phenyl)-1H-indazol-6-ol], for which the inhibition at 30 µM (3 h, at 30 uM compound, read-out: HSD17β13 % at 30 uM) worked out at 40%.
On to `Cc1ccccc1-c1ccc(-n2ncc3cc(F)c(O)cc32)cc1` [Compound 13.9, 5-Fluoro-1-(2′-methyl-[1,1′-biphenyl]-4-yl)-1H-indazol-6-ol], for which the IC50 was in the range of 100 to 1000 nM.
Consider `CC1(C)CCN(c2ccc(-n3nnc4cc(F)c(O)c(F)c43)cn2)CC1` [Compound 26.11, 1-(6-(4,4-Dimethylpiperidin-1-yl)pyridin-3-yl)-5,7-difluoro-1H-benzo[d][1,2,3]triazol-6-ol], for which the IC50 was below 100 nM.
As for `Oc1c(F)cc2cnn(-c3ccc(-c4cccnc4)cc3)c2c1F` [Compound 14.3, 5,7-Difluoro-1-(4-(pyridin-3-yl)phenyl)-1H-indazol-6-ol], the IC50 was below 100 nM.
Turning to `CC1(C)CCN(c2ccc(-n3ncc4cnc(O)c(F)c43)cc2)CC1` [Compound 25.4, 1-(4-(4,4-Dimethylpiperidin-1-yl)phenyl)-7-fluoro-1H-pyrazolo[4,3-c]pyridin-6-ol], where the note is “3 h”, the inhibition at 10 µM was below 20%.
On to `Oc1c(F)cc2cnn(-c3ccc(N4CCCCC4)cc3)c2c1F` [Compound 23.2, 5,7-Difluoro-1-(4-(piperidin-1-yl)phenyl)-1H-indazol-6-ol], for which the IC50 was below 100 nM.
For the compound `Oc1c(F)cc2nnn(-c3ccc(N4CCOC[C@@H]4c4ccccc4)cc3)c2c1F` [Compound 26.29, (S)-5,7-Difluoro-1-(4-(3-phenylmorpholino)phenyl)-1H-benzo[d][1,2,3]triazol-6-ol], the IC50 is 100 to 1000 nM.
